We go through four molecules from patent publication US20240018129A1, “COMPOUNDS AS PU. 1 INHIBITORS” (PEKING UNIVERSITY, priority 2020, published 2024).

Assay [1] concerns the target T1, PU.1 (Mus musculus, UniProt P17433).
T1 construct: EGFP (from 'PU.1-EGFP-vector'); expressed in transfected cells
As to the kind of experiment: q-PCR of TIM-3 expression in Blast-PU.1 cells (PU.1 inhibition potency). It counts as cell-based. The following applies: 10 μM, Blast-PU.1 cells, 24 h treatment, q-PCR. An excerpt:
An acute T cell lymphoblastic leukemia (T-ALL) disease model was used to evaluate the effect of the newly synthesized compounds on PU.1 inhibition. Pten, a famous tumor suppressor gene, was […] deleted in mouse hematopoietic stem cells and their differentiated progeny, and this would eventually lead to a progressive T-ALL in about two months from born. It is believed that immune checkpoint T cell immunoglobulin mucin-3 (TIM-3), a surface marker for the isolation of pure leukemia-initiating cells (LICs), is transcriptionally regulated by transcription factor PU.1 in the Pten-null T-ALL model. Therefore, the expression level of TIM-3 was detected and quantified to characterize the inhibition potency of the compounds after 24 h treatment of graded concentrations of compounds. Blast cells were transfected with either PU.1-EGFP-vector or EGFP-vector to yield stable cell lines blast-PU.1 and blast-EGFP, respectively. These cell lines were used for compound testing in vitro. Compounds DB1976 and DB2115 were tested as well for comparison. Blast-PU.1 and blast-EGFP are the ideal cell lines for compounds testing in vitro, since they are T-ALL blast cells with […] TIM-3 and PU.1 expression level.

Assay [2] has as its target PU.1 (Homo sapiens, UniProt P17947). The following applies: cited from earlier work.
In assay [3] the test system is skin, liver and lung fibrosis. The following applies: Wohlfahrt et al., Nature 2019; cited from earlier work.
For assay [4], the system named is other ETS family numbers. The following applies: cited from earlier work.
Assay [5] relates to HFD/CCL4-induced NASH and liver fibrosis. Description: High-fat diet (HFD) combined with CCl4 (lower dose)-induced NASH model. Type of assay: in vivo, mouse. An excerpt:
(§1) Methods: To evaluate the potential therapeutic effects of compound I-1 on liver disorders, including liver fat steatosis and accumulation, nonalcoholic fatty liver disease (NAFLD), nonalcoholic steatosis hepatitis (NASH), and liver fibrosis, three mice models (C57BL/6, male, 8 weeks old) were used. (I) NASH diet (Code.TD.160785, ENVIGO, USA)-induced NASH model: All mice were fed with NASH diet for 10 weeks. Mice were then randomly distributed into three groups, and each group was assigned to be injected daily with vehicle, compound I-1 (2.5mpk or 5mpk, i.p.), or DB1976 (2.5mpk, i.p, as a positive control) for another 6 weeks on continuous NASH diet. A group with normal regular diet was treated with vehicle as health control. (II) High-fat diet (HFD) combinate with CCl4 (lower dose)—induced NASH model. Mice were fed with normal regular diet or HFD (kcal fat 60%—D12492, research diets) for 10 weeks, then the HFD mice were divided into two groups randomly based on the rule of minimum weight differences. Each group was assigned to be injected with CCl4 (25% v/v in olive oil, 0.5 mL/kg body weight) or pure olive oil (i.p.) twice a week for 4 weeks. Compound 1-1 or vehicle (saline) were injected (i.p.) once daily for 4 weeks at the same time with CCl4 under continuous HFD. (III) CCl4 (higher dose)—induced liver fibrosis model. Liver fibrosis was induced by CCl4 injection (20% v/v in olive oil, 10 mL/kg body weight) twice a week for 6 weeks, compound I-1 or vehicle are also injected (i.p.) once daily for 6 weeks at the same time with CCl4 application. Ail the mice in the above-mentioned three models were observed daily. After the last day of treatment of all the models, mice were fasted overnight and euthanized. Serum was collected after centrifuging of the whole blood at 4 degrees, and blood biochemistry parameters were tested through automatic biochemical instrument (BS-240VET, Mindray). Part of liver tissues were fixed with paraformaldehyde, embedded with paraffin, and then sliced for H&E or Sirius red staining to check pathological features, and NAFLD scores. Kleiner, D. E. et al. Hepatology 41, 1313-1321, doi:10.1002/hep.20701 (2005). Part of liver tissues were used fresh, embedded in optimum cutting temperature compound, and sectioned. The sections were stained with 0.5% oil red 0 according to standard procedures after fixed in 4% paraformaldehyde in PBS. Another part of liver tissues were collected and stored in −80° C. after liquid nitrogen quick-freezing, RNA. isolation (Code.R6934, OMEGA., USA), first cDNA reverse (Code.AT341, TransGen, China), SYBR mix (Code.AQ601, TransGen, China) for Q-PCR (LightCycler®96, Roche) to verify genes mRNA level, such as, fibrosis-related genes, Col1a1 and Col1a2; inflammation-related genes, IL-6 and IL-1β.

The test system of assay [6] is NASH. Particulars: in vivo; Liu et al., J Hepatol 2020; cited from earlier work.
In assay [7] the test system is bleomycin-induced pulmonary fibrosis. Description: bleomycin-induced pulmonary fibrosis, preventive and therapeutic models. Type of assay: in vivo, mouse. The following applies: preventive model, 5mpk i.p. for 4 weeks after single bleomycin injection. How it is done:
Methods: To evaluate the preventive and therapeutic effects of compound I-1 on pulmonary fibrosis, bleomycin was used to establish two animal models of pulmonary fibrosis with different drug intervention (6-8 weeks, C57BL/6, male). Bleomycin (0.025U, Code.D11063, OKA, China) was injected by a single intratracheal application. Equal volumes of sterilized saline served as a control. (I) Preventive model of bleomycin-induced pulmonary fibrosis. Compounds compound I-1, positive control DB1976, or vehicle (saline) were treated (injected intraperitoneally, i.p.) immediately after single bleomycin injection for 4 weeks (FIG. 4a). (II) Therapeutic model of bleomycin-induced pulmonary fibrosis. Mice were pre-charged with bleomycin for 11 days to induced pulmonary fibrosis, then treated with compounds compound I-1, positive control DB1976, or vehicle (saline) for 17 days, total time is 4 weeks after bleomycin treatment (FIG. 4h). After the last day of treatment of both models, mice were fasted overnight and euthanized. A part of lung was fixed with paraformaldehyde, embedded with paraffin, and then sliced for H&E and Sirius red staining to check pathological features, and Ashcroft scores. Hubner, R. H. et al. Biotechniques 44, 507-511, 514-507, doi:10.2144/000112729 (2008). Another part of lung were collected and stored in −80° C. after liquid nitrogen quick-freezing, RNA isolation (Code.R6934, OMEGA, USA), first cDNA reverse (Code.AT341, TransGen, China), SYBR mix (Code.AQ601, TransGen, China) for Q-PCR (LightCycle96, Roche) to verify several fibrosis-related genes mRNA level, such as, Col1a1 and Col1a2.

For assay [8], the system named is bleomycin-induced skin fibrosis. As to the kind of experiment: bleomycin-induced skin fibrosis, preventive and therapeutic models. Type of assay: in vivo, mouse. The protocol: Methods: To evaluate the preventive and therapeutic effects of compound I-1 on skin fibrosis, bleomycin was used to establish two animal models of skin fibrosis with different drug intervention (6-8 weeks, C57BL/6, male). Skin fibrosis was induced by local injection of bleomycin (0.5 mg/mL, 0.1 ml/mouse) in a skin defined area (˜1 cm^2), where the hair was removed in advance, at the upper back every other day. Subcutaneous saline injections served as controls. (I) Preventive model of bleomycin-induced skin fibrosis: Compound I-1, positive control DB1976, or vehicle (saline) were injected i.p. simultaneously with bleomycin for 4 weeks (FIG. 3a). (II) Therapeutic model of bleomycin-induced skin fibrosis: Mice were pre-charged with bleomycin for 3 weeks to induce skin fibrosis, then treated with compound I-1, positive control DB1976, or vehicle (saline) for another 3 weeks, total time is 6 weeks after the first bleomycin treatment (FIG. 30. After the last day of treatment of both models, mice were fasted overnight and euthanized. Part of the skin was fixed with paraformaldehyde after fully flat on a foil, embedded with paraffin, and then sliced for H&E, Sirius red and Masson staining to check pathological features. The epidermal thickness of each sample was calculated quantitatively with image J. Another part of skin was collected and stored at −80° C. after liquid nitrogen quick-freezing, RNA isolation (Code.R6934, OMEGA, USA), first cDNA reverse (Code.AT341, TransGen, China), SYBR mix (Code.AQ601, TransGen, China) for Q-PCR (LightCycler® 96, Roche) to verify several fibrosis-related genes mRNA level, such as, Col1a1 and Col1a2.

In assay [9] the test system is NASH diet-induced NASH. As to the kind of experiment: NASH diet-induced NASH model. Type of assay: in vivo, mouse. The following applies: 2.5mpk i.p. daily for 6 weeks.
Description: as §1

Assay [10] has as its system T-ALL blast cells and TIM-3-high LICs. Description: Pten-null T-ALL mouse model, compound I-1 and/or rapamycin treatment.
Description: To generate a Pten-null T-ALL mouse model, Pten was 40% deleted in mouse fetal liver hematopoietic stem cells (HSCs), followed by PI3K-AKT pathway activation, hematopoietic disorder and T-ALL development. In the T-ALL crisis stage, T-ALL blasts and LICs would infiltrate mouse hematopoietic organs and non-hematopoietic organs.
After treatment, hematopoietic and non-hematopoietic organ morphology of the mice was analyzed using hematoxylin-eosin (H&E) staining.
The mark [11] stands for this setting: preventive model, 5mpk i.p., 4 weeks.

In the case of `N=C(N)c1ccc2nc(-c3ccc(NC(=O)[C@@H]4CCCN4C(=O)[C@H]4CCCN4C(=O)c4ccc(-c5nc6ccc(C(=N)N)cc6[nH]5)cc4)cc3)[nH]c2c1` [Compound I-3, (S)-1-((4-(6-carbamimidoyl-1H-benzo[d]imidazol-2-yl)benzoyl)-D-prolyl)-N-(4-(6-carbamimidoyl-1H-benzo[d]imidazol-2-yl)phenyl)pyrrolidine-2-carboxamide], the “inhibition of TIM-3 expression” value in assay [1] was “no obvious inhibition”.
As to `N=C(N)c1ccc2nc(-c3ccc(-c4nc5ccc(C(=N)N)cc5[nH]4)[se]3)[nH]c2c1` [DB1976, reference compound], the “potency as PU.1 inhibitor” value in assay [2] is given as “limited potency”. The “skin, liver and lung fibrosis” value in assay [3] is “alleviated”. In [4], the “activity on other ETS family numbers” value is recorded as “inhibitory activity”. Besides, the “serum triglyceride (TG) and total-cholesterol (TC)” value in [5] (fasting serum, i.p. once daily for 4 weeks) is given as “reduced”. Besides, the “body weight, gWAT and iWAT weight radio increased by HFD/CCL4” value in assay [5] (i.p. once daily for 4 weeks with CCl4 under HFD) is listed as “reversed”. Moreover, in assay [5] (mouse, in vivo), the “collagen deposition (sirius red staining) and liver mRNA level of Col1a1 and Col1a2” value was “reduced”; the “liver fibrosis induced by HFD/CCL4 application” value is given as “significantly alleviated”. The “effects on NASH progress (liver steatosis, inflammation, fibrosis, glucose homeostasis)” value in assay [6] is reported as “beneficial effects”. In addition, the “pulmonary fibrosis progress (staining, Ashcroft scores, collagen deposition, Col1a1, Col1a2 mRNA)” value in assay [7] is recorded as “significantly prevented”. The skin fibrosis progress entry in assay [8] (preventive model, 5mpk i.p. simultaneously with bleomycin for 4 weeks, vs bleomycin/vehicle) is “significantly prevented”. Moreover, in [8] (setting [11]), the collagen deposition result is “reducing” and the epidermal thickness entry is on record as “reducing”. Moreover, in [8] (preventive model, 5mpk i.p., 4 weeks, skin), the “mRNA level of Col1a1 and Col1a2” value is on record as “decreasing”. Moreover, in [8] (therapeutic model, 3 weeks bleomycin then 3 weeks treatment, 5mpk), the bleomycin-induced skin fibrosis result is “significantly alleviated and reversed”. Besides, the “metabolic disturbance by NASH diet (body weight, liver fat, ALT, LDL-C, TC, IL-6, IL-1β, Col1a1, Col1a2)” value in assay [9] was “potently alleviated”.
Take `CO[C@H]1C[C@@H]2CC[C@@H](C)[C@@](O)(O2)C(=O)C(=O)N2CCCC[C@H]2C(=O)O[C@H]([C@H](C)C[C@@H]2CC[C@@H](O)[C@H](OC)C2)CC(=O)[C@H](C)/C=C(\C)[C@@H](O)[C@@H](OC)C(=O)[C@H](C)C[C@H](C)/C=C/C=C/C=C/1C` [rapamycin, reference compound]: the “proportion of blasts in bone marrow” value in [10] (after two days' treatment at blast crisis stage, without treatment 96.4%) stood at 13.2%. Further, the “TIM-3 high LICs proportion” value in assay [10] (after two days' treatment, bone marrow, without treatment 33.5%) is 22.2%.
As to `N=C(N)c1ccc2nc(-c3ccc(NC(=O)[C@H]4CCCN4C(=O)[C@H]4CCCN4C(=O)c4ccc(-c5nc6ccc(C(=N)N)cc6[nH]5)cc4)cc3)[nH]c2c1` [Compound I-2, (R)-1-((4-(6-carbamimidoyl-1H-benzo[d]imidazol-2-yl)benzoyl)-D-prolyl)-N-(4-(6-carbamimidoyl-1H-benzo[d]imidazol-2-yl)phenyl)pyrrolidine-2-carboxamide], the “inhibition of TIM-3 expression” value in assay [1] is “no obvious inhibition”.
